Assay results: ChEMBL document CHEMBL1201862, “PubChem BioAssay data set” (2004)
Activity calls are given as the source filed them.

Assays:
[1] = target: T1, Oxysterols receptor LXR-beta (Homo sapiens, UniProt P55055); test: LXR agonists, Gal4 luciferase reporter, dose response, counter-screen for ssDAF-12 agonist project, cell-based, luminescence, HEK293, S. stercoralis campaign (AID 720737); type: functional; conditions: read-out: IC50 (the source's name)
T1 sequence (P55055 whole entry): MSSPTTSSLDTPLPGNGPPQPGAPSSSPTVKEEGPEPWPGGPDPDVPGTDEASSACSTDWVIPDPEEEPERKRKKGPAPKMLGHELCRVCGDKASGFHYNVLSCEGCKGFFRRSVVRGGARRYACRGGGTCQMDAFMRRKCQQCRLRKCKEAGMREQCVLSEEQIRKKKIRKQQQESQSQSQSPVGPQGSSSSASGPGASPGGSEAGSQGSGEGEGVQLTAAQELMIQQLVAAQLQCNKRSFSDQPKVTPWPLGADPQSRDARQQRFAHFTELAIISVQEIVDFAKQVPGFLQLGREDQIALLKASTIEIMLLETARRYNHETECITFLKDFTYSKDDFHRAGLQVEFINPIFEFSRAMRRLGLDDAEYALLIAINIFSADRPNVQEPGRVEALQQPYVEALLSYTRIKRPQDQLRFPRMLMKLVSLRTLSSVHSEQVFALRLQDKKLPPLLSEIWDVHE

[2] = target: T2, Insulin-degrading enzyme (Homo sapiens, UniProt P14735); test: Dose Response: Fluorescence polarization-based cell-based high throughput dose response assay for inhibitors of insulin-degrading enzyme (IDE). [Related pubchem assays: 434962 (Primary screen (IDE inhibitors in singlicate)), 449730 (Counterscreen (Cytotoxicity in triplicate)), 435028 (Confirmation (IDE inhibitors in triplicate)), 434984 (Summary …; type: functional
T2 sequence (P14735 whole entry): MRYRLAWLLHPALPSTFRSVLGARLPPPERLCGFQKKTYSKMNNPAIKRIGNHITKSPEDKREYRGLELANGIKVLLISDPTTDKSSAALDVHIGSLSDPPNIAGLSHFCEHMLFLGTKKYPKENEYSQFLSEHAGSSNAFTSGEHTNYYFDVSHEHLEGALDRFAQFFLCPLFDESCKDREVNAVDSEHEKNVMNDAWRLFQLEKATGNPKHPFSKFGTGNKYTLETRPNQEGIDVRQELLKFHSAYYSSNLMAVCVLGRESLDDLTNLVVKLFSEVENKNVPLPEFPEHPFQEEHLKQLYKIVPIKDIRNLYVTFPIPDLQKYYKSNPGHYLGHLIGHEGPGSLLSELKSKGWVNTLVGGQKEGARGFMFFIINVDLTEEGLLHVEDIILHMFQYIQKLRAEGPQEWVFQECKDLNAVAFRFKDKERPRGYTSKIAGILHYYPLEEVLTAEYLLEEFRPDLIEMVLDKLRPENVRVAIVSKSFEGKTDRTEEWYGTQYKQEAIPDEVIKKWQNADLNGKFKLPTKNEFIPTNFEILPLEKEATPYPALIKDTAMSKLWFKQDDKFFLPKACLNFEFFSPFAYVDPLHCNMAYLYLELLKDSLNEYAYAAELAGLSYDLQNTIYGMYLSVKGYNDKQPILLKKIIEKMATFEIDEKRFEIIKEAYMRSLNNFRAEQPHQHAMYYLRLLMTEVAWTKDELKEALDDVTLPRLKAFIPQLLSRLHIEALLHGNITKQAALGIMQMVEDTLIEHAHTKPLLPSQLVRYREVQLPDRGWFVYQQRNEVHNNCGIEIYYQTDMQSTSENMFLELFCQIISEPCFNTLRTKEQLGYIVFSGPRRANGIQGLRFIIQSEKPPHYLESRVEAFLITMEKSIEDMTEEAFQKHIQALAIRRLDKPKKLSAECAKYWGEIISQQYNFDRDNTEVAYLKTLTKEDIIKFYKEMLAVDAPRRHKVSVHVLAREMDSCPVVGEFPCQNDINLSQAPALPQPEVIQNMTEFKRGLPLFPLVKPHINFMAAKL

[3] = target: T3, Mannose-6-phosphate isomerase (Homo sapiens, UniProt P34949); test: MPI inhibition at elevated mannose 6-phosphate – biochemical, fluorescence intensity, high mannose 6-phosphate, primary screen (AID 1220)
T3 sequence (P34949 whole entry): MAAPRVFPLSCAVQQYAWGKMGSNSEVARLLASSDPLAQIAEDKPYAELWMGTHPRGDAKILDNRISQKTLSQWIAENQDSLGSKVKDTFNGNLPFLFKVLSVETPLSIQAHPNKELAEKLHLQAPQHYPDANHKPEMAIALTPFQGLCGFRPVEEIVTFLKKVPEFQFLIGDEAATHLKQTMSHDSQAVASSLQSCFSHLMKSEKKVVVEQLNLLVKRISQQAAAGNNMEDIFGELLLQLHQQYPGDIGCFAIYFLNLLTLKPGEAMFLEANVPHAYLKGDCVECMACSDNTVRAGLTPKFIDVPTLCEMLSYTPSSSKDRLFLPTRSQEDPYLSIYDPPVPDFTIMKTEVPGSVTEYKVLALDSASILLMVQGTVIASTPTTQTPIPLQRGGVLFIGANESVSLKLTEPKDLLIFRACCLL

IC50 [3]	Structure (SMILES)	EC50 [1]	IC50 [2]
	C/C(=N\c1cccc(C)c1)c1sc2ccccc2c1O	> 67.6 µM (inactive)	22.7 µM (not active)
> 50 µM (not active)	COc1ccc(/C=N/Nc2cc(N(C)C)nc(N(C)C)n2)cc1		
